The values below come from paper PMC7925398, “Exploring the Therapeutic Potenital of the Leaderless Enterocins K1 and EJ97 in the Treatment of Vancomycin-Resistant Enterococcal Infection” (Frontiers in Microbiology, 2021).

Like-named read-outs stand apart in the source and are kept apart here. Where no end group is shown, it is not given here.

The subject of series [1] is E. faecalis. The following applies: MIC = at least 50% growth inhibition, three parallels. How it is done: Unless otherwise specified the bacterial strains were grown in brain heart infusion (BHI) medium (Oxoid) at 37°C under aerobic conditions without shaking.
The peptides were stored at −20°C until use. The amino acid sequences of the bacteriocins are […] RPVA and […] […] Bacteriocin activity was determined using a microtiter assay as previously described ([Holo et al., 1991]).

In series [2] the test system is human erythrocytes. Description: Haemolysis assay. The following applies: 37°C. On the procedure:
To assess the haemolytic effect whole blood was drawn from two healthy human volunteers, pooled and distributed in 1 ml aliquots. The aliquots were spun down at 1,000 × g for 5 min at 4°C to separate erythrocytes from plasma. The erythrocytes were washed three times with saline (0.9% NaCl) and resuspended in 100 μl saline. […] SDS in saline was added as a control, since bacteriocins were solved in saline. The samples were incubated at 37°C for 1 h and then spun down again to remove intact erythrocytes. The supernatant was measured for absorbance at 540 nm in order to measure degree of haemolysis. […] The experiment was repeated three times to allow for statistical analysis.
Whole human blood was mixed with each bacteriocin in saline to a final concentration of 1, 0.1, and 0.01 mg/ml. The samples were incubated at 37°C before the erythrocytes were spun down and the supernatant was read at OD540.

Series [3] is described as follows: Antibacterial effect (MIC) after incubation in blood, plasma or saline. The class given is cell-based. On the procedure: To test whether the antibacterial effect of the bacteriocins was reduced in blood, an assay was performed where whole blood was collected from two healthy volunteers, with EDTA as an anticoagulant. Directly after blood sampling each bacteriocin was added to a concentration of 1mg/ml. […] Samples were collected at specific time points and bacteriocin activity was determined using the standard MIC assay as previously described ([Holo et al., 1991]). The experiment was repeated three times and the error bars represent the standard deviation.
The presented MIC values are the average of three experiments. Each bacteriocin was added to whole human blood to reach a concentration of 1 mg/ml. […] RT is short for room temperature.

The test system of series [4] is E. faecalis D6 and E. faecalis MMH594. Description: Effect of autoclaving on antibacterial activity, E. faecalis. The format is cell-based, Enterococcus faecalis. The following applies: in MilliQ water with 0.1% TFA, standard autoclaving; MIC against E. faecalis D6 and MMH594. From the text: A pre-requisite for intravenous administration is complete sterility of the compound ([Paese et al., 2017]). The simplest manner to achieve this is through autoclaving. However, this can cause degradation of the compound and therefore be detrimental to the antibacterial effect. Also, if the compound is degraded into unknown constituents this may cause unintended interactions. Therefore, we exposed the bacteriocins to a standard autoclaving procedure.
Each bacteriocin was solved in MilliQ water with 0.1% TFA and then autoclaved. […] Strains: 20705 is short for E. faecium LMGT 20705; 0237 for E. faecium 42 ACA-D6 0237; D6 for E. faecalis D6; and MMH594 for E. faecalis MMH594.

Series [5] deals with bacteriocin-resistant enterococcal cells (eep-mutants). Conditions: colonies from inhibition zones of spot-on-lawn assay; 'mostly above'; cross-resistant. On the procedure: Bacteriocin resistant mutants were obtained by a spot-on-lawn assay, where liquid bacteriocin was spotted on a lawn of indicator cells, using 10μl of bacteriocin in concentrations 0.5–5 mg/ml. The plates were incubated at 30°C overnight and resistant colonies were selected from the inhibition zones and re-streaked on new plates for isolated colonies. Pure cultures were made and stored in 15% glycerol at −80°C. The eep gene was PCR amplified and sequenced with specific primers: eep in E. faecium was amplified using primers Eepf4F + Eepf4R and sequenced using primers Eepf1R - Eepf6R and Eepf1F - Eepf6F. eep in E. faecalis was amplified using primers Eepfa1R + Eepfa3F and sequenced using primers Eepfa1R - Eepfa3R, Eepf1R - Eepf3R and Eepfa1F - Eepfa3F.
The samples were sent to GATC Biotech, Germany for sequencing. MIC of the resistant mutants was scored using a microtiter assay as previously described ([Holo et al., 1991]).

With “MLAKIKAMIKKFPNPYTLAAKLTTYEINWYKQQYGRYPWERPVA [EntEJ97, enterocin EJ97]”, the “MIC of EntEJ97” value in series [1] (strain 62 (L, laboratory)) is 1.56 µg/mL; in series [1] (strain D6 (L, laboratory)) it was 0.39 µg/mL; in series [1] (strain HH22 (N, nosocomial)), 1.56 µg/mL; in series [1] (strain MMH594 (N, nosocomial)), 0.39 µg/mL; in series [1] (strain Merz96 (N, nosocomial)) it was 0.78 µg/mL; in series [1] (strain OG1RF (L, laboratory)) it was 0.78 µg/mL. For the same sequence, the “MIC of EntEJ97” value is 0.39 µg/mL in series [1] (strain Symbioflor (B, probiotic)); 0.39 µg/mL in series [1] (strain T3 (N, nosocomial)); 0.39 µg/mL in series [1] (strain TX0104 (N, nosocomial)); more than 25 µg/mL in series [1] (strain V583 (N, nosocomial; carries EntEJ97 immunity gene)). In series [2] (1 mg/ml in saline), the “Visual haemolysis (redness of supernatant compared to saline)” value is “did not cause haemolysis”. In series [2] (0.01, 0.1 and 1 mg/ml in saline, washed human erythrocytes (two volunteers, pooled), 1 h, supernatant absorbance 540 nm, repeated three times), the Haemolysis of erythrocytes entry is given as “non-haemolytic”. In addition, the “MIC in plasma after 8 h” value in series [3] (human plasma, 8 h incubation at 37°C, average of three experiments) is 0.78 µg/mL. Also, the “MIC in plasma at 48 h” value in series [3] (human plasma, 48 h incubation at 37°C, average of three experiments) stood at 1.56 µg/mL. In series [3] (saline, 8 h incubation at 37°C, average of three experiments), the “MIC in saline after 8 h” value worked out at 0.39 µg/mL. For the same sequence, the “MIC in saline at 48 h” value in series [3] (saline, 48 h incubation at 37°C, average of three experiments) worked out at 0.78 µg/mL. Besides, in series [3] (whole human blood (EDTA), 1 mg/ml, 8 h incubation at 37°C, average of three experiments), the “MIC in blood after 8 h” value is 1.56 µg/mL. Also, the “MIC in blood at 48 h” value in series [3] (whole human blood (EDTA), 1 mg/ml, 48 h incubation at 37°C, average of three experiments) is 3.125 µg/mL. The “MIC in blood compared to saline (fold higher)” value in series [3] (whole human blood vs saline, 37°C) came out at 2 ×. In addition, the “Effect of autoclaving on MIC” value in series [4] is given as “did not affect”. The “MIC against cells from resistant colonies” value in series [5] was “above 25 μg/ml”.
